Calls of active or inactive are those of the source. No cut-off for these calls is given here.
Key:
[1] = tested on: Leishmania amazonensis; experiment: Antileishmanial activity against Leishmania amazonensis after 72 hrs; assay type: functional, organism-based
[2] = tested on: Peritoneal macrophage cell; experiment: Induction of intracellular […] production in Swiss mouse peritoneal macrophages up to 12 uM after 72 hrs by spectrofluorometric analysis; assay type: functional, cell-based
[3] = tested on: Peritoneal macrophage cell; experiment: Induction of intracellular […] production in promastigotes of Leishmania amazonensis MHOM/BR/75/LTB0016 infected Swiss mouse peritoneal macrophages at 12 uM after 72 hrs by spectrofluorometric analysis relative to control; assay type: functional
[4] = tested on: Peritoneal macrophage cell; experiment: Induction of intracellular […] production in promastigotes of Leishmania amazonensis MHOM/BR/75/LTB0016 infected Swiss mouse peritoneal macrophages after 72 hrs by spectrofluorometric analysis; assay type: functional, cell-based
[5] = Cytotoxicity against Swiss mouse peritoneal macrophages after 72 hrs by AlamarBlue assay; assay type: cell-based; details: Peritoneal macrophage cell
[6] = Selectivity index, ratio of IC50 for Swiss mouse peritoneal macrophages to IC50 for promastigotes of Leishmania amazonensis MHOM/BR/75/LTB0016
[7] = tested on: Leishmania amazonensis; experiment: Antileishmanial activity against promastigotes of Leishmania amazonensis MHOM/BR/75/LTB0016 infected in Swiss mouse peritoneal macrophages assessed as parasite growth inhibition at 12 uM after 72 hrs; assay type: functional; details: MHOM/BR/75/LTB0016, 72 h, read-out: GI
[8] = tested on: Leishmania amazonensis; experiment: Antileishmanial activity against promastigotes of Leishmania amazonensis MHOM/BR/75/LTB0016 infected in Swiss mouse peritoneal macrophages assessed as reduction of infection index after 72 hrs; assay type: functional, organism-based

| Compound | IC50 [1] | Activity [2] | fold change (FC) [3] | Activity [4] | IC50 [5] | Ratio IC50 [6] | inhibition of growth at 12 µM [7] | inhibition [8] | IC50 ([8]; MHOM/BR/75/LTB0016, 72 h) |
| --- | --- | --- | --- | --- | --- | --- | --- | --- | --- |
| CCCCCCCCCCCCCCCCOP(=O)([O-])OCC[N+](C)(C)C [MILTEFOSINE] | 3.2 µM |  |  |  |  |  |  |  |  |
| O=c1c(O)c(-c2ccc(O)c(O)c2)oc2cc(O)cc(O)c12 [QUERCETIN] |  | inactive | 1.5 | Dose-dependent effect | 80.2 µM | 16.8 | 74.8% | Dose-dependent effect | 3.4 µM |

— ChEMBL document CHEMBL2406940, “Reactive oxygen species production by quercetin causes the death of Leishmania amazonensis intracellular amastigotes” (J Nat Prod, 2013)
